Laboratory results from patent US20190125867A1, “THERAPEUTIC AGENT FOR SOLID CANCER” (IDAC THERANOSTICS, INC., priority 2014, published 2019).

Legend:
[1] = tested on: mouse melanoma cell line B16F10; test: Tumor volume in C57BL/6 mice transplanted with melanoma cell line B16F10; format: in vivo; conditions: Day 15
Protocol: On Day −2 (two days before the cancer cell transplantation), Day 0 (=day of cancer cell transplantation), Day 3, Day 5, Day 9, or Day 12, 0.2 mg of an anti-CD4 antibody (GK1.5; an antibody known to be capable of causing depletion of CD4+ cells in the mouse body by the CDC activity; manufactured by BioXcell) was intraperitoneally administered at one time. The solid tumor diameter was measured on Day 14, and the tumor volume was calculated by short diameter×short diameter×long diameter×π/6.
On Day 5, 3.125 μg, 12.5 μg, 50 μg, or 200 μg of the anti-CD4 antibody was administered (negative control group: no antibody was administered).
The solid tumor diameter in each mouse was measured, and the tumor volume was calculated (short diameter×short diameter×long diameter×π/6).
Thereafter, antibody administration was carried out as follows (Day 0=day of cancer cell transplantation).
The tumor volume was calculated (short diameter×short diameter×long diameter×π/6) from the solid tumor diameter measured on Day 18.
The tumor volume was calculated (short diameter×short diameter×long diameter×π/6) from the solid tumor diameter measured on Day 15.
The tumor volume was calculated (short diameter×short diameter×long diameter×π/6) from the solid tumor diameter measured on Day 16.

[2] = tested on: CD4+ cells in human peripheral blood mononuclear cells; test: ADCC activity assay (Promega ADCC activity assay kit, PBMCs + ADCC Bioassay Effector cells); format: cell-based; conditions: 12,500 PBMCs, 75,000 effector cells, 37° C. 6 hours; FIG. 1
Protocol: Measurement of the ADCC activity of IT1208 was carried out under the following conditions, according to the protocol for an ADCC activity assay kit sold by Promega. After gently mixing 12,500 PBMCs derived from a healthy individual, anti-CD4mAb (IT1208), and 75,000 ADCC Bioassay Effector cells contained in the Promega kit, the cells were cultured in a CO2 incubator at 37° C. for 6 hours. The luminescent reagent Bio-Glo reagent was added to the culture, and culturing was then continued at room temperature for 20 minutes, followed by measuring chemiluminescence using a luminescence plate reader.

[3] = Example 7 (small molecule anticancer agents), anti-CD4 0.2 mg Day 5, 9, OXA 10, GEM 20, CPA 10 mg/kg Day 5, 9, 12, 16, FIG. 23

Compound | growth of solid tumor relative to control group [1, 3] [%] | also measured
O=c1[nH]cc(F)c(=O)[nH]1 [5-FU] |  | growth of solid tumor relative to control group ([1]; Example 4, anti-CD4 0.2 mg once Day 5, anti-CD137 0.1 mg Day 5-9, 5-FU 50 mg/kg four times, FIG. 13): 36%
O=P1(N(CCCl)CCCl)NCCCO1 (stereo not shown) [CPA, Cyclophosphamide] | 75 | 
Nc1ccn([C@@H]2O[C@H](CO)[C@@H](O)C2(F)F)c(=O)n1 [GEM, Gemcitabine] | 63 | 
Rituximab |  | concentration at which ADCC activity began to be found [2]: ≥ 10 nM
